In data set [1] the test system is A549 NSCLC cell line. The experiment in a line: Cellular cytotoxicity assay (Alamar Blue), A549. The following applies: Homo sapiens. The class given is cell-based. As for the experimental part: (§1) The anti-proliferative activity of the chimeric HDAC and protein kinase inhibitory chimeric compounds of the present invention was evaluated using HeLa cervical carcinoma, A549 NSCLC, SKOV3 ovarian carcinoma, Cal27 head and neck cancer, K562 chronic myeloid leukemia (CML) and EOL1 acute hypereosinophilic myeloid leukemia, cell lines. For quantification of cellular proliferation/living cells the Alamar Blue (Resazurin) cell viability assay was applied (O'Brien et al. Eur Biochem. 267, 5421-5426, 2000). In this assay Resazurin is reduced to the fluorescent resorufin by cellular dehydrogenase activity, correlating with viable, proliferating cells. The examples were dissolved as 20 mM solutions in dimethylsulfoxide (DMSO) and subsequently diluted in semi-logarithmic steps. Cell lines were seeded at respective density into 96 well flat bottom plates in a volume of 200 μl per well. 24 h after seeding 1 μl each of the compound dilutions were added into each well of the 96 well plate. Each compound dilution was tested as quadruplicates. Wells containing untreated control cells were filled with […] DMEM medium containing 0.5% v:v DMSO. The cells were then incubated with the substances for 72 h at 37° C. in a humidified atmosphere containing 5% carbon dioxide. To determine the viability of the cells, 20 μl of an Resazurin solution (Sigma; 90 mg/l) were added. After 4 h incubation at 37° C. the fluorescence was measured at an extinction of 544 nm and an emission of 590 nm. For the calculation of the cell viability the emission value from untreated cells was set as 100% viability and the emission rates of treated cells were set in relation to the values of untreated cells. Viabilities were expressed as % values. The corresponding IC50 values of the compounds for cytotoxic activity are determined from the concentration-effect curves by means of non-linear regression.
(Alamar Blue is a resazurin reagent that responds to reducing activity.)

The subject of data set [2] is HeLa cervical carcinoma cell line. The experiment in a line: Cellular cytotoxicity assay (Alamar Blue), HeLa. The class given is cell-based. The conditions noted are these: Homo sapiens, 72 h. As for the experimental part:
as §1

Data set [3] deals with histone H3 hyperacetylation in HeLa cervical carcinoma cells. The experiment in a line: Cellular histone H3 hyperacetylation assay. The class given is cell-based. The following applies: Homo sapiens, 24 h, only a range over the listed compounds is given, read-out: Induction of histone H3 hyperacetylation in HeLa cervical carcinoma cells EC50. From the text: To assess the cellular efficacy of a histone deacetylase inhibitor in vitro, an assay was set up in black clear-bottom 96-well plates and optimized for use on the Cellomics “ArrayScan II” platform for a quantitative calculation of histone acetylation. The protocol uses a polyclonal rabbit antibody, specifically binding to acetylated lysine 1-20 of human histone H3 on fixed cells with an Alexa Fluor 488 labeled goat anti rabbit-IgG used for counterstaining (Beckers et al. Int J. Cancer 121, 1138, 2007).
5×10^3 HeLa cervical carcinoma cells/well (ATCC. CCL-2) in 200 μl Dulbecco rs modified Eagle's medium (DMEM) containing 10% fetal calf serum are seeded at day 1 in Packard view plates and incubated for 24 h under standard cell culture conditions. On day 2, 1 μl test compound (200× final concentration) is added and incubation continued for further 24 h. On day 3, the culture medium is discarded and attached cells fixed for 15 min at room temperature by addition of 100 μl fixation buffer (3.7% v:v formaldehyde in phosphate buffered saline/PBS). After discarding the fixation buffer and one wash with blocking solution (1% BSA, 0.3% Tween 20 in PBS), cells are permeabilized at room temperature by addition of 100 μl/well permeabilization buffer (30.8 mM NaCl, 0.54 mM Na2HPO4, 0.31 mM KH2PO4, 0.1% v:v Triton X-100) for 15 min at room temperature. After discarding the permeabilization buffer and washing twice with 100 μl/well blocking solution at room temperature, the 1st antibody (anti-K^1-20 histone H3 antibody, Calbiochem No. 382158) in blocking solution (50 μl/well) is added. After incubation for 1 h at room temperature, the wells are washed twice at room temperature with 100 μl/well blocking solution before addition of the 2nd antibody (goat-anti-rabbit Alexa Fluor 488; MoBiTec No. A-11008) in blocking solution (50 μl/well). After further incubation for 1 h at room temperature, wells are washed twice with 100 μl/well blocking solution at room temperature. Finally, 100 μl/well PBS are added and image analysis performed on the Cellomics “ArrayScan II” platform. For EC50 determination, the percentage of positive cells showing nuclear fluorescence is determined and EC50 calculation done from concentration-effect curves by means of non-linear regression. For calibration, a positive (reference HDAC inhibitors like SAHA or NVP LBH-589) and a negative control were included.

Data set [4] has as its target T1, PDGFRβ (Homo sapiens, UniProt P09619).
T1 construct: purchased ProQinase, Freiburg/Germany
In words: Biochemical flash-plate based kinase assay, PDGFRβ. The following applies: only a range over the listed compounds is given; read-out: PDGFRβ inhibition IC50. From the text: Active kinase proteins were either obtained from commercial suppliers (Abl, PDGF-Rβ ProQinase, Freiburg/Germany; AblT^315I: Millipore/Upstate, Billerica/USA; PKA: InvitroGen/Panvera, Carlsbad/USA) or prepared in-house (KDR, c-terminal kinase domain AA790-1356, HER2 c-terminal kinase domain, EGFR/HER1 C-terminal kinase domain). As substrates, poly-AGKY for Abl, AblT^315I and PDGF-Rβ (#P-1152 Sigma, Munich/Germany), poly-GluTyr for KDR, HER2 and EGFR/HER1 (#P-0275, Sigma, Munich/Germany) or a PKA substrate peptide for PKA (#12-394, Millipore/Upstate, Billerica/USA) were used. Into each well of a 96-well flashplate (#SMP-200 in the case of Abl, Abl T^315I, PDGF-Rβ, EGFR, HER2 and KDR, #SMP-103 in the case of PKA; Perkin Elmer, Waltham/USA) kinase protein was diluted into kinase assay buffer (50 mM HEPES pH 7.5, 3 mM MgCl2, 3 mM MnCl2, 1 mM DTT, 3 μM sodium orthovanadate, 5 μg/ml PEG 8000) containing the appropriate substrate (final volume 89 μl). DMSO vehicle or compounds are added as 1 μl/well prior to the initiation of the kinase reaction by 10 μl 1 mM [^33P]-γATP (4×10^5 cpm). Reactions were allowed to proceed for a time predetermined to be linear on a time versus phosphorylation plot (30 min for PKA, otherwise 80 min) and terminated with the addition of an equal volume of phosphoric acid (2% H3PO4 for 5 minutes). Plates were washed three times with 0.9% w/v NaCl and quantitated by liquid scintillation counting.

Data set [5] deals with SKOV3 ovarian carcinoma cell line. In words: Cellular cytotoxicity assay (Alamar Blue), SKOV3. The following applies: Homo sapiens. The class given is cell-based. As for the experimental part: as §1
In data set [6] the test system is EOL1 acute hypereosinophilic myeloid leukemia cell line. In words: Cellular cytotoxicity assay (Alamar Blue), EOL1. The class given is cell-based. The conditions noted are these: Homo sapiens, 72 h, only a range over the listed compounds is given, read-out: Cytotoxicity towards EOL1 cell line IC50. As for the experimental part:
as §1

In data set [7] the test system is Cal27 head and neck cancer cell line. In words: Cellular cytotoxicity assay (Alamar Blue), Cal27. The following applies: Homo sapiens. The class given is cell-based. As for the experimental part: as §1
The target of data set [8] is T2, recombinant HDAC1 isolated from HEK293 cells with heterologous HDAC1 expression (Homo sapiens, UniProt Q13547).
T2 construct: made in house
T2 sequence (Q13547 whole entry): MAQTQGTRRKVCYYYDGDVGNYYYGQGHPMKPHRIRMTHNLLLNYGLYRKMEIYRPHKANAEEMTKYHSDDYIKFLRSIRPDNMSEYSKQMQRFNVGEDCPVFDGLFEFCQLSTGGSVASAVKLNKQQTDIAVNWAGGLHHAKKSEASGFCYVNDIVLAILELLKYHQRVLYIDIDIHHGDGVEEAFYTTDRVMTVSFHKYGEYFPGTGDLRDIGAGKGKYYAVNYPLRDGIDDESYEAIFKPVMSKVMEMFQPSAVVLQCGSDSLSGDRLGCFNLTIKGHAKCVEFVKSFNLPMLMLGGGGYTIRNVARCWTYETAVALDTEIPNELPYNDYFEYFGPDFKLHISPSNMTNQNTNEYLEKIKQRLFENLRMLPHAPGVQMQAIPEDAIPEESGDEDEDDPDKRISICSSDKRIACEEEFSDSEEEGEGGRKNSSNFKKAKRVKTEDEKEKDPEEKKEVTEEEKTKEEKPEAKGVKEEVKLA
The experiment in a line: Fluorimetric rHDAC1 activity assay. The class given is biochemical. The conditions noted are these: only a range of IC50 over the compounds given; read-out: rHDAC1 inhibitory activity IC50.

The subject of data set [9] is K562 chronic myeloid leukemia (CML) cell line. The experiment in a line: Cellular cytotoxicity assay (Alamar Blue), K562. The class given is cell-based. The conditions noted are these: Homo sapiens, 72 h, only a range over the listed compounds is given, read-out: Cytotoxicity towards K562 CML cell line IC50. As for the experimental part: as §1
Setting [10] is: A549, 72 h, only a range over the listed compounds is given, read-out: Cytotoxicity towards A549 NSCLC cell line IC50.
The mark [11] stands for this setting: only a range over the listed compounds is given, read-out: Cytotoxicity towards HeLa cervical cell line IC50.
Where [12] appears, read: SK-OV-3, 72 h, only a range over the listed compounds is given, read-out: Cytotoxicity towards SKOV3 cell line IC50.
The mark [13] stands for this setting: CAL-27, 72 h, only a range over the listed compounds is given, read-out: Cytotoxicity towards Cal27 cell line IC50.

Counter-ions that a name gives are not always drawn. Like-named read-outs stand apart in the source and are kept apart here.

T1 sequence (P09619 33-1106): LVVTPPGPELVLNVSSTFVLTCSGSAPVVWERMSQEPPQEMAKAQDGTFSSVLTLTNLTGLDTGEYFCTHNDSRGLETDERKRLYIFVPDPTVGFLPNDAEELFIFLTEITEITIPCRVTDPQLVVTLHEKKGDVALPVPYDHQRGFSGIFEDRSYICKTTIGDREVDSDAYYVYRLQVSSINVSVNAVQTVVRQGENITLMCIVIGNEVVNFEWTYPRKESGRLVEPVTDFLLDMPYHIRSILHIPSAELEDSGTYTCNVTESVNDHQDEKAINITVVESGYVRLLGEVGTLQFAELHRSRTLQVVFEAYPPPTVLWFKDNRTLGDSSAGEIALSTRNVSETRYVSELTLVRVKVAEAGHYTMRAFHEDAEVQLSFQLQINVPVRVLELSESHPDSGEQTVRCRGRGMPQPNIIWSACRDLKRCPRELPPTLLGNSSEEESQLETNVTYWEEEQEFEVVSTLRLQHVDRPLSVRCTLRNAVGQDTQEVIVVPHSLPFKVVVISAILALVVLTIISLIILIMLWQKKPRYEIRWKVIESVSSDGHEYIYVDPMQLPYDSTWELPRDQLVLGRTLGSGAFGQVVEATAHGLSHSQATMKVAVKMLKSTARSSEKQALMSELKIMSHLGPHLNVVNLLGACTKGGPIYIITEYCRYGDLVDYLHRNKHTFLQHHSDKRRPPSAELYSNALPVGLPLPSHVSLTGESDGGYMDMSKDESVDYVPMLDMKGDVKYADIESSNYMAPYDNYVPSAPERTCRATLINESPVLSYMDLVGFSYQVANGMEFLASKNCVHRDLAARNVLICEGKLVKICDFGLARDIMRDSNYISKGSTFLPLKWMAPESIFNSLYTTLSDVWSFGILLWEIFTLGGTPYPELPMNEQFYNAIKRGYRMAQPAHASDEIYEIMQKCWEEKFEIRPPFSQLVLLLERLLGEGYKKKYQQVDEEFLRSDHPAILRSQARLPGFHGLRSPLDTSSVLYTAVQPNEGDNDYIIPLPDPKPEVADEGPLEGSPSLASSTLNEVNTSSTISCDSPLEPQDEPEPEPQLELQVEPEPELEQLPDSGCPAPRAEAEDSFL

By IC50 is commonly meant the concentration that inhibits the measured activity by half. Usually melting point stands for the temperature, or range, at which the solid turns liquid. In general, EC50 refers to the midpoint of the concentration-response curve. For `Cc1ccc(NC(=O)c2ccc(C(=O)NO)cc2)cc1Nc1nc(-c2cccnc2)cs1` [[20], N^1-hydroxy-N^4-(4-methyl-3-(4-(pyridin-3-yl)thiazol-2-ylamino)phenyl)terephthalamide], the melting point is 261 °C. Besides, the IC50 in data set [1] (setting [10]) was no less than 2.95e-06 M. Also, the IC50 in data set [2] (setting [11]) was no less than 1.15e-06 M. The EC50 in data set [3] lay in the range of 1.7 to 10 µM. The IC50 in [4] lay within 2.1 to 71 µM.

For `Nc1ccccc1NC(=O)c1ccc(-c2ccc3ncnc(Nc4ccc(OCc5cccc(F)c5)c(Cl)c4)c3c2)o1` [[5], 5-{4-[3-Chloro-4-(3-fluorobenzyloxy)phenylamino]-quinazolin-6-yl}furan-2-carboxylic acid (2-amino-phenyl)amide], the melting point was 250 °C (dec.). Besides, the IC50 in data set [1] (setting [10]) was no less than 1.1e-06 M. Moreover, the EC50 in data set [3] was no less than 3.65 µM. Also, in [5] (setting [12]), the IC50 was no less than 1e-06 M.

As for `Cc1ccc(NC(=O)c2ccc(C(=O)Nc3ccccc3N)cc2)cc1Nc1nccc(-c2cccnc2)n1` [[14], N-(2-Amino-phenyl)-N′-[4-methyl-3-(4-pyridin-3-yl-pyrimidin-2-ylamino)-phenyl]-terephthalamide compound with trifluoroacetic acid], the IC50 in [2] (setting [11]) was no less than 1.15e-06 M; in [6], 3 to 780 nM; in data set [4], 2.1 to 71 µM.

In the case of `Nc1ccccc1NC(=O)/C=C/c1cccc(-c2ccc3ncnc(Nc4ccc(OCc5cccc(F)c5)c(Cl)c4)c3c2)c1` [[11], (E)-N-(2-aminophenyl)-3-(3-(4-(3-chloro-4-(3-fluorobenzyloxy)phenylamino)-quinazolin-6-yl)phenyl)acrylamide], the IC50 in [7] (setting [13]) is no less than 2.8e-07 M; in data set [8] it was no less than 35.3 nM; in data set [1] (setting [10]), no less than 1.1e-06 M.

For `Cc1ccc(NC(=O)c2ccc(C(=O)Nc3ccccc3N)s2)cc1Nc1nccc(-c2cccnc2)n1` [[26], N^2-(2-aminophenyl)-N^5-(4-methyl-3-(4-(pyridin-3-yl)pyrimidin-2-ylamino)phenyl)thiophene-2,5-dicarboxamide], the melting point came out at 280.5 °C. In addition, the IC50 in [1] (setting [10]) is no less than 2.95e-06 M. In [6], the IC50 fell in the range of 3 to 780 nM. Further, the IC50 in [9] lay within 490 to 4070 nM.

Take `Nc1ccccc1NC(=O)c1ccc(C(=O)Nc2cccc(Nc3nc(-c4cccnc4)cs3)c2)cc1` [[18], N^1-(2-aminophenyl)-N^4-(3-(4-(pyridin-3-yl)thiazol-2-ylamino)phenyl)terephthalamide hydrate]: in [4], the IC50 is 2.1 to 71 µM.

As to `C#Cc1cccc(Nc2ncnc3ccc(S(=O)(=O)n4ccc(/C=C/C(=O)NO)c4)cc23)c1` [[45], 3-{1-[4-(3-Ethynylphenylamino)quinazoline-6-sulfonyl]-1H-pyrrol-3-yl}-N-hydroxy-acrylamide], the IC50 in data set [7] (setting [13]) was 1.6e-07 to 8e-06 M; in data set [1] (setting [10]), no less than 2.4e-07 M; in data set [2] (setting [11]), no less than 5e-07 M; in data set [5] (setting [12]), no less than 5.6e-07 M.

Consider `Cc1ccc(NCc2ccc(/C=C/C(=O)NO)cc2)cc1Nc1nccc(-c2cccnc2)n1` [[16], (E)-N-Hydroxy-3-(4-{[4-methyl-3-(4-pyridin-3-yl-pyrimidin-2-ylamino)-phenylamino]methyl}-phenyl)-acrylamide], for which the melting point lay within 201 to 205 °C. In [8], the IC50 lay in the range of 77 to 1400 nM. In addition, the IC50 in data set [1] (setting [10]) is no less than 2.95e-06 M. Moreover, the IC50 in data set [2] (setting [11]) is no less than 1.15e-06 M. Further, in data set [3], the EC50 was in the range of 1.7 to 10 µM.

For `O=C(/C=C/c1ccc(-c2ccc3ncnc(Nc4ccc(OCc5cccc(F)c5)c(Cl)c4)c3c2)cc1)NO` [[8], (E)-3-(4-(4-(3-chloro-4-(3-fluorobenzyl-oxy)phenylamino)quinazolin-6-yl)phen-yl)-N-hydroxyacrylamide hydrochloride monohydrate], the IC50 was no less than 2.8e-07 M in data set [7] (CAL-27, 72 h, read-out: Cytotoxicity towards Cal27 cell line IC50 (M)); no less than 35.3 nM in data set [8]; no less than 1.1e-06 M in data set [1] (A549, 72 h, read-out: Cytotoxicity towards A549 NSCLC cell line IC50 (M)); 9.1e-07 to 9.4e-06 M in data set [2] (read-out: Cytotoxicity towards HeLa cervical cell line IC50 (M)); no less than 1e-06 M in data set [5] (SK-OV-3, 72 h, read-out: Cytotoxicity towards SKOV3 cell line IC50 (M)).

`Nc1ccccc1NC(=O)c1ccc(C(=O)Nc2cccc(Nc3nc(-c4cccnc4)cs3)c2)cn1` [[24], N^2-(2-aminophenyl)-N^5-(3-(4-(pyridin-3-yl)thiazol-2-ylamino)phenyl)pyridine-2,5-dicarboxamide]: the melting point lay within 148 to 150 °C. In data set [9], the IC50 was in the range of 490 to 4070 nM.

Values taken from patent US20110065734A1, “NOVEL BIFUNCTIONAL COMPOUNDS WHICH INHIBIT PROTEIN KINASES AND HISTONE DEACETYLASES” (4SC AG, priority 2007, published 2011).
